Data from article PMC4309560, “Creating Novel Activated Factor XI Inhibitors through Fragment Based Lead Generation and Structure Aided Drug Design” (PLoS ONE, 2015).
Where two headings read alike, the source gives them in different places.

Key:
Human FXIa = target: T1, Human FXIa (Homo sapiens, UniProt P03951); assay: FXIa enzymatic chromogenic assay; assay type: biochemical
T1 construct: purchased HTI, Essex Junction, USA
Method: (§1) Enzymatic assay. […] Selected compounds were also screened against other serine proteases to evaluate their selectivity profiles.
(§2) Once the compounds were synthesized and characterized, enzymatic assays were performed to evaluate the inhibitory activity of the resulting compounds against FXIa and other serine proteases. […] IC50 values for the compounds were determined using equation: Q= V/(1+([I]/IC50)^n) Q denotes the assay readout, V denotes the uninhibited velocity of the enzyme, [I] denotes the inhibitor concentration, n denotes the slope and IC50 is the inhibitor concentration at V/2.
(§3) [S] denotes the substrate concentration.

Human PKK = target: T2, Human PKK (Homo sapiens, UniProt P03952); assay: PKK (plasma kallikrein) chromogenic assay; assay type: biochemical; details: for Ki: converted from IC50
T2 construct: trypsin, plasma kallikrein (PKK), FIXa; purchased Calbiochem, Darmstadt, Germany
T2 sequence (P03952 391-638 limits assumed): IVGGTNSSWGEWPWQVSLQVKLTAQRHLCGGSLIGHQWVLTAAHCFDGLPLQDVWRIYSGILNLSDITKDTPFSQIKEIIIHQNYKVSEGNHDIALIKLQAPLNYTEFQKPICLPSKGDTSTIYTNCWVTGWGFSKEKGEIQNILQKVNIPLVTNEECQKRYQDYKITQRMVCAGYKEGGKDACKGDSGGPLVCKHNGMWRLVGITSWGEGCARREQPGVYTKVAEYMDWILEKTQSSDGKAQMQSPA
T2 sequence (P03952 20-390 partner limits assumed): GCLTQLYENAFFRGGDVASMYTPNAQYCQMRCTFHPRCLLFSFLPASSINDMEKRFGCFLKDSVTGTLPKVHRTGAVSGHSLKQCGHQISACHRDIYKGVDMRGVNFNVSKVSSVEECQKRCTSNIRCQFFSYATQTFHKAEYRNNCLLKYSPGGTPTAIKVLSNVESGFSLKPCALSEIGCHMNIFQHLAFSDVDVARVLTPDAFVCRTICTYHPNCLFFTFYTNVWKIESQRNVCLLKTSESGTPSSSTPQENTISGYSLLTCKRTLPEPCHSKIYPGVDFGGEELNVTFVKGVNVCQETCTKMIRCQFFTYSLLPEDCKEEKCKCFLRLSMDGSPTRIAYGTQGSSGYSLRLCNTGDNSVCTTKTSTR
Method: as §1, §2, §3
PKK. Human PKK was from Calbiochem, Darmstadt, Germany.

Human FXa = Human FXa (Homo sapiens, UniProt P00742); assay: biochemical; details: read-out: FXa % inhibition at 99 μM
Human FXa, sequence (P00742 235-488 limits assumed): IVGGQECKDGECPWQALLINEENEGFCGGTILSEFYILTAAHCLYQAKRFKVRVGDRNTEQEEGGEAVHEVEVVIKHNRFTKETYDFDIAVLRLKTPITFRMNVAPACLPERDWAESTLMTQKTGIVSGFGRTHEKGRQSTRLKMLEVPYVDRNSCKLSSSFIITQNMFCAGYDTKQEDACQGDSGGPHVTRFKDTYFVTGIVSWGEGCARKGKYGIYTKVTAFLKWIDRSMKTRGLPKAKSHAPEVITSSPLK
Human FXa, sequence (P00742 41-179 partner limits assumed): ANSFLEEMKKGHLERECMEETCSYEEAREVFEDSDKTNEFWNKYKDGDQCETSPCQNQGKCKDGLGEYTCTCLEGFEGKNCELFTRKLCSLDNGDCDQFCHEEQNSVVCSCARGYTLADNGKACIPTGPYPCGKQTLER
Method: as §1, §2

Human FIXa = Human FIXa (Homo sapiens, UniProt P00740); assay: biochemical; details: read-out: FIXa % inhibition at 99 μM
Human FIXa, sequence (P00740 227-461 limits assumed): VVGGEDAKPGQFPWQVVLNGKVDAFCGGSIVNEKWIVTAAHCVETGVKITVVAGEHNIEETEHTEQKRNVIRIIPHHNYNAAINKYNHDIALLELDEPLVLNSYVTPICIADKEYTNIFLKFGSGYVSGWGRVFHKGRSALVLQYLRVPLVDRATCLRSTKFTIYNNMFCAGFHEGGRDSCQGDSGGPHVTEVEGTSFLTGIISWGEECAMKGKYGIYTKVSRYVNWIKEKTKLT
Human FIXa, sequence (P00740 47-191 partner limits assumed): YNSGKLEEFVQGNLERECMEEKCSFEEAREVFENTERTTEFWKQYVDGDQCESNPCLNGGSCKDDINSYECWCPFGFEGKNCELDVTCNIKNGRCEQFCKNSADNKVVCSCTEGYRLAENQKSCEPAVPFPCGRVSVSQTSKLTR
Method: as §1, §2

[1] = target: Recombinant human trypsin (Homo sapiens, UniProt P07477); assay: biochemical; details: read-out: Trypsin % inhibition at 99 μM
Method: as §1, §2
Trypsin. Recombinant human trypsin was from Polymun, Vienna, Austria.

Human tPA = Human tPA (Homo sapiens, UniProt P00750); assay: biochemical; details: read-out: tPA % inhibition at 99 μM
Human tPA, sequence (P00750 36-562): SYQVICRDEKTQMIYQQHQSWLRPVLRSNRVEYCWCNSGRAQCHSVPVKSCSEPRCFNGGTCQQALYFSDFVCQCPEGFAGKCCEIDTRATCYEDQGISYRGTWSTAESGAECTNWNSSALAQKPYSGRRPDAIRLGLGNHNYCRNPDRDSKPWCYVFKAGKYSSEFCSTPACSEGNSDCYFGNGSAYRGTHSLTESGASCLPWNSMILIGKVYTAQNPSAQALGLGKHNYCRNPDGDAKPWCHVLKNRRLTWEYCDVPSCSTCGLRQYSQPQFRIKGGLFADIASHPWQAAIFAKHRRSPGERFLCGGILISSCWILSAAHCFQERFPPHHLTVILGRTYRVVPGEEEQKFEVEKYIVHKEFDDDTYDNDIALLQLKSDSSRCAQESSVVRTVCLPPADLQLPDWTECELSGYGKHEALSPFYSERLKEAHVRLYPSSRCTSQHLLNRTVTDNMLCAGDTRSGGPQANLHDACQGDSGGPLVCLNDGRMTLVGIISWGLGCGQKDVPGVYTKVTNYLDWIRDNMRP
Method: as §1, §2
tPa. Human tPA was from Biopool, Umeå, Sweden.

[2] = target: T3, Human recombinant thrombin (Homo sapiens, UniProt P00734); assay: Thrombin (FIIa) chromogenic assay; assay type: biochemical; details: for inhibition at 99 µM: read-out: FIIa % inhibition at 99 μM
T3 construct: Human recombinant thrombin was prepared in house; made in house
Method: as §1, §2, §3
Thrombin. Human recombinant thrombin was prepared in house.

Human plasmin = target: T4, Human plasmin (Homo sapiens, UniProt P00747); assay: Plasmin chromogenic assay; assay type: biochemical; details: for inhibition at 99 µM: read-out: Plasmin % inhibition at 99 μM
T4 construct: Human plasmin was from Enzyme Research Laboratories, Swansea, UK; purchased Enzyme Research Laboratories, Swansea, UK
T4 sequence (P00747 581-810 limits assumed): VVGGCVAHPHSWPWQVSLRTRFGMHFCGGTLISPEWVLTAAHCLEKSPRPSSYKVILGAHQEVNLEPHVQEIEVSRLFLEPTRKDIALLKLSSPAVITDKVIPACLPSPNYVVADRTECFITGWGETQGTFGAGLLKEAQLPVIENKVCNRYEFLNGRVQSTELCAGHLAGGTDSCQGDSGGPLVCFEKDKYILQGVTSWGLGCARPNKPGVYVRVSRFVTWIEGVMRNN
T4 sequence (P00747 97-580 partner limits assumed): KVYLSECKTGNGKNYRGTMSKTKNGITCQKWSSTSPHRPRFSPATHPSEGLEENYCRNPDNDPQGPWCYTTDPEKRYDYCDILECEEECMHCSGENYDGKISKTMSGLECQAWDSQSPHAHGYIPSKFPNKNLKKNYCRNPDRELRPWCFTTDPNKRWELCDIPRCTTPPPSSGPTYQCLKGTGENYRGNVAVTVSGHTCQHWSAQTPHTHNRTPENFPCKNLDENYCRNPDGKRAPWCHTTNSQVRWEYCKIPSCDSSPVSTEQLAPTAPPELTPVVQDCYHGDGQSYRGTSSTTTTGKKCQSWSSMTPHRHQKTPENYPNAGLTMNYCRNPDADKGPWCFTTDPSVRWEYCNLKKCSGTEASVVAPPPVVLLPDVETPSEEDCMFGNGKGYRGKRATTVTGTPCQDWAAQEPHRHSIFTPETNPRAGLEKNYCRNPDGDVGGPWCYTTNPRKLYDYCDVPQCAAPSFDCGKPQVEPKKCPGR
Method: as §1, §2, §3
Plasmin. Human plasmin was from Enzyme Research Laboratories, Swansea, UK.

Caco2 efflux = assay type: in vitro ADME; details: human, Caco-2; Caco2, Papp B to A / Papp A to B, pH 7.4 at side A
Source text: Efflux was studied in the same Caco2 cells with the modification that HBSS buffer pH 7.4 was used on both sides of the monolayer. The permeability was studied in the apical to basolateral direction (Papp AB) as well as in the basolateral to apical direction and (Papp BA). Efflux ratios were derived from the following equation: Papp BA/Papp AB.

Caco2 cells = assay: Caco2 permeability; assay type: in vitro ADME
Method: A monolayer of Caco2 cells, cultured on semi-permeable polycarbonate surfaces, was used to study the permeability in the apical to basolateral direction. The process was atomized by a robotic Tecan EVO platform (Männerdorf, Switzerland) and 24-transwell plates from Costar (Cambridge, MA, USA). HBSS buffer pH 7.4 was dispensed to the basal side of the monolayer. […] Samples for quantitative analysis by LC/MS/MS were withdrawn before the addition of the test substrate and at 45 and 120 min post addition of the test substrate. During incubation the transwell plates were placed in a shaking incubator at 37°C between sampling. The peak areas were exported to Excel where Papp-values and recoveries were calculated. Twenty-two reference compounds with known human oral bioavailability were used to establish a correlation curve with Papp versus the fraction of the oral dose absorbed (fa).

[3] = Chromatographic determination of lipophilicity; assay type: physicochemical; details: reversed-phase UPLC, Waters BEH C18 stationary phase, pH 7.4; measured by liquid chromatography, pH7.4
Source text: The chromatographic data was obtained utilizing a Waters Aquity UPLC chromatographic system running a gradient from 5–95% acetonitrile at pH7.4. The stationary phase was a Waters BEH C18 2.1x50 mm. Standardized retention data were obtained by normalization against a set of compounds with precisely determined (octanol/water) logD-values. Lipophilicity values for samples were derived from a corresponding calibration curve.

rat hepatocytes = assay: Rat hepatocyte metabolic stability assay; assay type: in vitro ADME
Method: Rat hepatocyte metabolic stability was determined in accordance with the method described by Jacobson et al.. Cryo preserved hepatocytes at a concentration of 10^6 viable cells/mL were used. After thawing, hepatocytes were incubated for 10 min to warm to 37°C and test compounds, dissolved in acetonitrile, were added to give a final concentration of 1 μM. At 0.5, 5, 15, 30, 45, 60, 80, 100 and 120 min, the incubation system was mixed and 20 μL aliquots were transferred at each time point to wells in a separate plate filled with 80 μL acetonitrile to stop the reaction. The quenching plate was then vortexed followed by centrifugation, and supernatants were analyzed by LC/MS/MS. Peak areas were determined from extracted ion chromatograms, and the in vitro intrinsic clearance (in vitro CLint, in μL/min/10^6 cells) of parent compound was calculated from the slope in the regression analysis of the natural logarithm of parent concentration vs. time curve.

T1 sequence (P03951 388-625): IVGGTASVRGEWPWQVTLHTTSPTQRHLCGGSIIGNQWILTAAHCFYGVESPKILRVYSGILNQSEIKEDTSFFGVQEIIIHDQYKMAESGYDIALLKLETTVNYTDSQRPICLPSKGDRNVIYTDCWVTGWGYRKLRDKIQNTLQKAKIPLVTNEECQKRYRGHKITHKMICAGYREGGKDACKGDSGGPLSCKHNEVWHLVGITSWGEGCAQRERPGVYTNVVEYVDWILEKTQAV
T1 sequence (P03951 19-387): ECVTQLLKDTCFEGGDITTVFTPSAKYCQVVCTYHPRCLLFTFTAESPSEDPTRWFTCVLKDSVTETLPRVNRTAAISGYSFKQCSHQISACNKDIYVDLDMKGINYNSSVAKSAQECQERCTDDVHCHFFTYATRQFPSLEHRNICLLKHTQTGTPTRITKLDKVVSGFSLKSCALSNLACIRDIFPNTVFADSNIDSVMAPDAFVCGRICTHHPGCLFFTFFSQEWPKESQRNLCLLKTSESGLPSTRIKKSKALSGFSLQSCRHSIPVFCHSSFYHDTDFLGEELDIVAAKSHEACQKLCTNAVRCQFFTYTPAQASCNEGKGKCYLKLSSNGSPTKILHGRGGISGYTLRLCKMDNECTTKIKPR

SMILES | IC50 (Human FXIa) [µM] | Ki (Human FXIa) [µM] | inhibition at 99 µM (Human FXa) [%] | inhibition at 99 µM (Human FIXa) [%] | inhibition at 99 µM [1] [%] | inhibition at 99 µM (Human tPA) [%] | inhibition at 99 µM [2] [%] | inhibition at 99 µM (Human plasmin) [%] | IC50 (Human PKK) [µM] | Ki (Human PKK) [µM] | other results
[H]/N=C(/N)c1ccc2cc(C(=O)Nc3ccccc3)cc(Nc3ncccn3)c2c1 [Compound 1] | < 0.14 |  |  |  |  |  |  |  |  |  | 
CCCS(=O)(=O)N[C@@H](C(=O)N[C@@H](CC(C)C)C(=O)NCc1ccc(C(=N)N)cc1)C1CCCCC1 [Compound 2, reference compound] | 0.11 | 0.06 |  |  |  |  |  |  |  |  | 
O=c1ccc2cc(Cl)ccc2[nH]1 [Compound 5] | 140 |  | 31 | 1 | 0 | 0 | 8 | 31 |  |  | inhibition at 99 µM (Human PKK; read-out: PKK % inhibition at 99 μM): 5%; ligand efficiency (LE) (Human FXIa; FXIa): 0.44; -ΔG fragment (printed with reversed sign in the ΔG link equation) (Human FXIa; FXIa, subtracted term, so ΔG itself is negative): 5.66 kcal/mol; Ki (Human FXIa; read-out: FXIa Ki): 70 µM
N=C(N)c1ccccc1 [Compound 7, benzamidine, reference compound] | 610 |  |  |  |  |  |  |  |  |  | 
COC(=O)Nc1ccc(-c2nc(CNC(=O)CCc3cc(Cl)ccc3-n3cnnn3)[nH]c2Cl)cc1 [Compound 11, reference compound] | 0.16 | 0.08 | 6 | 0 | 4 | 0 |  | 0 | 20 | 4.2 | IC50 [2]: 63 µM; Ki ([2]; converted from IC50): 31 µM
CC(=O)N[C@@H](Cc1ccccc1)C(=O)NCc1cc(=O)[nH]c2ccc(Cl)cc12 [Compound 14, (S)-2-Acetamido-N-{(6-chloro-2-oxo-1,2-dihydroquinolin-4-yl)methyl}-3-phenylpropanamide] | 33 | 16 | 0 | 4 | 18 | 3 | 9 | 7 | 59 | 12 | ligand efficiency (LE) (Human FXIa; FXIa): 0.22
CN(C)C(=O)[C@H](Cc1ccccc1)NC(=O)c1ccc2[nH]c(=O)cc(O)c2c1 [Compound 16, (S)-N-(1-(Dimethylamino)-1-oxo-3-phenylpropan-2-yl)-4-hydroxy-2-oxo-1,2-dihydroquinoline-6-carboxamide] | > 1000 |  |  |  |  |  |  |  |  |  | inhibition at 1000 µM (Human FXIa; read-out: FXIa % inh. at 1 mM): 36%
O=C1CC(CNC(=O)[C@H](Cc2ccccc2)NC(=O)c2ccc3[nH]c(=O)cc(O)c3c2)c2cc(Cl)ccc2N1 (some centres unmarked) [Compound 18, N-({2S}-1-({6-Chloro-2-oxo-1,2,3,4-tetrahydroquinolin-4-yl}methylamino)-1-oxo-3-phenylpropan-2-yl)-4-hydroxy-2-oxo-1,2-dihydroquinoline-6-carboxamide] | 0.01 | 0.005 |  |  |  |  |  |  |  |  | 
Cc1cc(N)nc2ccccc12 [Compound 19] | 240 | 120 | 9 | 7 | 43 | 7 | 8 | 8 |  |  | 
O=C1CC(CC(=O)NC(Cc2ccccc2)C(=O)Nc2ccc(-c3nnn[nH]3)cc2)c2cc(Cl)ccc2N1 (centres unmarked) [Compound 20, N-(4-(1H-Tetrazol-5-yl)phenyl)-2-(2-(6-chloro-2-oxo-1,2,3,4-tetrahydroquinolin-4-yl)acetamido)-3-phenylpropanamide] | 0.33 | 0.16 | 12 | 4 | 7 | 15 | 10 | 8 | 2.3 | 0.48 | 
O=C(CC1Cc2cc(Cl)ccc2NC1=O)NC(Cc1ccccc1)C(=O)Nc1ccc(-c2nnn[nH]2)cc1 (centres unmarked) [Compound 21, N-(4-(1H-Tetrazol-5-yl)phenyl)-2-(2-(6-chloro-2-oxo-1,2,3,4-tetrahydroquinolin-3-yl)acetamido)-3-phenylpropanamide] | 1.9 | 0.95 | 0 | 0 | 1 | 3 | 2 | 0 | 25 | 5.2 | 
O=C(Cc1cc2cc(Cl)ccc2[nH]c1=O)NC(Cc1ccccc1)C(=O)Nc1ccc(-c2nnn[nH]2)cc1 (centres unmarked) [Compound 22, N-(4-(1H-Tetrazol-5-yl)phenyl)-2-(2-(6-chloro-2-oxo-1,2-dihydroquinolin-3-yl)acetamido)-3-phenylpropanamide] | 10 | 5 | 24 | 7 | 14 | 18 | 27 |  | 10 | 2.1 | IC50 (Human plasmin): 70 µM; Ki (Human plasmin; converted from IC50): 33 µM
O=C(CCc1cc2cc(Cl)ccc2[nH]c1=O)N[C@@H](Cc1ccccc1)C(=O)Nc1ccc(-c2nnn[nH]2)cc1 [Compound 23, (S)-N-(4-(1H-Tetrazol-5-yl)phenyl)-2-(3-(6-chloro-2-oxo-1,2-dihydroquinolin-3-yl)propanamido)-3-phenylpropanamide] | 67 | 34 |  |  |  |  |  |  |  |  | 
O=C(CCc1cc(=O)[nH]c2ccc(Cl)cc12)N[C@@H](Cc1ccccc1)C(=O)Nc1ccc(-c2nnn[nH]2)cc1 [Compound 24, (S)-N-(4-(1H-Tetrazol-5-yl)phenyl)-2-(3-(6-chloro-2-oxo-1,2-dihydroquinolin-4-yl)propanamido)-3-phenylpropanamide] | 9 | 4.5 |  |  |  |  |  |  |  |  | 
CN(Cc1cc(=O)[nH]c2ccc(Cl)cc12)C(=O)[C@H](Cc1ccccc1)NC(=O)c1ccc2[nH]c(=O)cc(O)c2c1 [Compound 25, (S)-N-(1-[{(6-Chloro-2-oxo-1,2-dihydroquinolin-4-yl)methyl}(methyl)amino]-1-oxo-3-phenylpropan-2-yl)-4-hydroxy-2-oxo-1,2-dihydroquinoline-6-carboxamide] | < 0.005 |  |  |  |  |  |  |  |  |  | efflux ratio (Caco2 efflux): 5.2; inhibition at 0.005 µM (Human FXIa; read-out: FXIa % inh. at 5 nM): 85%; Caco2 A to B permeability (Caco2 cells; measured at pH 6.5): 0.28 1·10^-6 cm/s; chromatographic logD [3]: 1.3; Rat CLint (rat hepatocytes): 10 μL/min/ 1·10^6 cells
Cc1c(-c2ccccc2)n[nH]c1C(=O)N(C)Cc1cc(=O)[nH]c2ccccc12 [Compound 27] | 99 | 50 |  |  |  |  |  |  |  |  | efflux ratio (Caco2 efflux): 6.7; Caco2 A to B permeability (Caco2 cells; measured at pH 7.4 at side A): 12 1·10^-6 cm/s; Rat CLint (rat hepatocytes): 58 μL/min/ 1·10^6 cells
